These results are taken from patent US20110028554A1, “PHARMACEUTICAL COMPOSITIONS COMPRISING DIIODOTHYRONINE AND THEIR THERAPEUTIC USE” (UNIVERSITE JOSEPH FOURIER, priority 2007, published 2011).

Assay [1] can be described thus: Body composition (adipose tissues, skeletal muscles, brown adipose tissue) of Wistar rats. The format is in vivo. From the text: At the end of the experimental period, animals were sacrificed by decapitation, in order to avoid the well-known effects of general anesthetics on mitochondrial metabolism. Blood, samples were immediately collected and plasma was frozen for subsequent determination of serum metabolites and hormones. Liver, muscles and fat depots were quickly excised and weighed. Liver median lobe was rapidly freeze-clamped. Muscles (plantaris, soleus and gastrocnemius) were frozen in isopentane precooled in liquid nitrogen. Mesenteric fat consisted, of adipose tissue surrounding the gastro-intestinal tract from the gastro-oesophageal sphincter to the end of the rectum with special care taken in distinguishing and removing the pancreas. Retroperitoneal fat pad was taken as the distinct depot behind each kidney along the lumbar muscles. Epididymal fat consisted, of adipose tissue on top of the epididymis. For subcutaneous depot measurement, a rectangular piece of skin was taken on the right side of each animal from the median line of the abdomen between the spine and the right hip to the first rib. Interscapular brown adipose tissue was removed and dissected free from adjacent muscles and white adipose tissue. The heart ventricles, the right kidney and the spleen were also excised, weighed and frozen.

Assay [2] is described as follows: Body weight, adipose and lean tissue weight and core temperature in ZDF rats. The assay is classed as in vivo, Zucker Diabetic fatty (ZDF) rats. Particulars: high dose 25 μg/100 g BW. The method, then:
Adult male rat bred in the animal room facilities of Laboratory of Fundamental and Applied. Bioenergetics (Wistar strain) or purchased from Charles-River Laboratories, Domaine des oncins, L'ARBRESLE France [(genetically obese normoglycemic (Zucker or Fa/Fa) or diabetic (ZDF)] were caged individually in stainless steel hanging cages and maintained in a 22° C., 50±10% relative humidity and 12 h:12 h light:dark environment. All animals were fed ad libitum with a standard rat chow (Safe A04, Villemoisson, France) and tap water. Body mass and food intake were recorded twice/thrice a week and fresh food was provided, at the same time to ensure minimal disturbance to the animals' food, behavior.
Eight-week old rats (300 g±10 g) were anesthetized by simultaneous intraperitoneal injection of diazepam 4 mg/kg and ketamine 100 mg/kg. In order to maintain body temperature during the surgery (10 min), animals were placed on a warm blanket. After interscapular shaving, a small incision of 0.5 cm of the skin allows the subcutaneous implantation of a small pellet (containing rT3 or 3′,3-T2) with a 10-gauge precision trochar. The pellets, manufactured by Innovative Research of America (Sarasota, Fla., USA) are constituted of a biodegradable matrix that effectively and continuously release the active product in the animal.
3-5 diiodothyronine (3-5 T2) or 3-3′diiodothyronine (3-3′ T2) were used at different doses (5, 0.5, or 0.1 mg/pellet) were implanted in order to provide a continuous and constant drug delivery over 60 days (which represents 25 μg, 2.5 μg or 0.5 μg/day/100 g BW).

Another assay relates to liver mitochondria. Nature of the assay: Liver mitochondrial oxygen consumption (JO2) of treated Wistar rats. The assay is classed as in vivo. Particulars: for Liver mitochondrial respiratory rate, phosphorylating condition (state 3), vs placebo: all substrates. The method, then: All measurements were performed using mitochondria (1.0 mg mitochondrial protein/ml) incubated with various substrates: • GM: glutamate/malate (5 mM/2.5 mM) • SR: succinate/rotenone (5 mM/5 μM), • GMS: glutamate/malate/succinate (5 mM/2.5 mM/5 mM), • Palm: palmitoyl carnitine (55 μM), • Octa: octanoyl carnitine (100 μM), • TMPD/AsC: TMPD/ascorbate (0.5 mM/0.5 mM), and • TMPD/AsC/DNP: TMPD/ascorbate/DNP (0.5 mM/0.5 mM/75 μM).
JO2 was recorded in the presence of the substrate and following the addition of 1 mM ADP (adenosine diphosphate) (state 3).
The oligomycin was added to the mitochondrial suspension to determine the non-phosphorylating respiratory-rate (state 4).
The major part of the liver and the red part of each quadriceps were rinsed, and chopped into isolation medium (250 mM sucrose, 20 mM Tris-HCl and 1 mM EGTA-Tris, pH 7.4). Nuclei and cell debris were removed, by centrifugation at 800 g for 10 min. Mitochondria were then isolated from the supernatant by spinning twice at 8,000 g for 10 minutes. The mitochondrial pellet was resuspended in 0.5 ml of isolation buffer and kept on ice. Mitochondrial protein was measured by the bicinchoninic acid method (Pierce, Rockford, Ill.). The final mitochondrial suspensions were maintained on ice and were used for measurements of oxygen consumption rate and reactive oxygen species (ROS) production.
The rate of mitochondrial oxygen consumption (JO2) was measured at 30° C. in an incubation chamber with a Clark-type O2 electrode filled with 2 ml of incubation medium (125 mM KCl, 10 mM Pi-Tris, 20 mM Tris-HCl, 0.1 mM EGTA, pH 7.2). All measurements were performed using mitochondria (1.0 or 0.2 mg mitochondrial protein/ml for liver and skeletal muscle) incubated either with various substrates: glutamate/malate (5 mM/2.5 mM) and succinate (5 mM), alone or in combination, palmitoyl carnitine (55 μM) and octanoyl carnitine (100 μM). For each substrate, JO2 was recorded in the presence of the substrate alone (State 2) and following the addition of 1 mM ADP (state 3). Oligomycin (1.25 μg/mg protein) was added to the mitochondrial suspension to determine the non-phosphorylating respiratory rate (state 4). The incubation medium was constantly stirred with a built-in electromagnetic stirrer and bar flea. The efficiency of the mitochondrial oxidative phosphorylation was assessed by the state 3/state 4 ratio which measures the degree of control imposed on oxidation by phosphorylation (respiratory control ratio, RCR).

Assay [3] is described as follows: Blood glucose in Goto-Kakizaki (GK) rats. The assay is classed as in vivo. To be noted: low dosage 2.5 μg/100 g BW, 10 days, n=5, p<0.01. The method, then:
Rats were genetically obese normoglycemic (Zucker or Fa/Fa), 10-11 week-old diabetic rats (ZDF) or genetic non-overweight diabetic (type 2 diabetes) rats (Goto-Kakizaki (GK) model).
The day of the study, after a fasted period overnight (18 h), blood samplings will be taken in awake rats from the tail vein.
Glucose and 3-hydroxybutyrate (3-HB) were measured, enzymatically and non esterified fatty acid (NEFA) by colorimetric assay (Wako Chemicals).

As to `N[C@@H](Cc1cc(I)c(Oc2ccc(O)cc2)c(I)c1)C(=O)O` [3,5-T2, 3,5-diiodothyronine], in assay [1] (high dosage 25 μg/100 g BW), the “Brown adipose tissue weight vs placebo” value is given as “significantly increased”; the “Fat masses, all localizations (retroperitoneal, epididymal, mesenteric, subcutaneous) vs placebo” value is on record as “significantly lower”; the “Muscle mass / lean body mass vs placebo” value is given as “not affected at all”. In assay [1] (low dosage 2.5 μg/100 g BW), the “Fat mass vs placebo” value is “significantly decreased” and the “Lean body mass vs placebo” value was “not affected”. In assay [2] (4 weeks), the “Fat mass gain vs placebo” value is recorded as “less” and the “Lean body mass increase vs placebo” value is reported as “higher”. Besides, in assay [2] (15 days), the “Core temperature vs placebo” value is recorded as “higher as compared to placebo”. Further, in the assay on liver mitochondria (high dosage 25 μg/100 g BW), the “Liver mitochondrial respiratory rate, non-phosphorylating (state 4, oligomycin), vs placebo” value was “substantially higher in the low 3,5-T2 group only” and the “Liver mitochondrial respiratory rate, phosphorylating condition (state 3), vs placebo” value is given as “very significant increased respiratory rate”. Further, in the assay with liver mitochondria (low dosage 2.5 μg/100 g BW), the “Liver mitochondrial respiratory rate, non-phosphorylating (state 4, oligomycin), vs placebo” value was “substantially higher” and the “Liver mitochondrial respiratory rate, phosphorylating condition (state 3), vs placebo” value is reported as “very significant increased respiratory rate”. Moreover, the “Change in blood glucose concentration as compared to control animals” value in assay [3] is −24±6%.
